From the NIST ThermoML archive (doi:10.1016/j.jct.2017.06.008)

Tests used:
[1] = xn = mol fraction of the nth substance listed; settings: 100 kPa, Liquid; for speed of sound: Frequency=3 MHz, Single path-length method; for mass density: Vibrating tube method
[2] = refractive index (Na D-line) (dimensionless); xn = mol fraction of the nth substance listed; settings: 100 kPa, Liquid, Standard Abbe refractometry

CC(=O)CC(C)C [4-methylpentan-2-one] + C1CCCCC1
Settings | mass density, 293.15 K [kg/m3] | mass density, 303.15 K [kg/m3] | mass density, 313.15 K [kg/m3] | refractive index, 293.15 K | refractive index, 303.15 K | refractive index, 313.15 K | speed of sound, 293.15 K [m/s] | speed of sound, 303.15 K [m/s] | speed of sound, 313.15 K [m/s]
[1], x1 = 0.0978 | 778 | 769 | 759 | – | – | – | 1260.7 | 1212.6 | 1165.6
[1], x1 = 0.1984 | 780 | 770 | 760 | – | – | – | 1246.9 | 1200 | 1154
[1], x1 = 0.3014 | 781 | 772 | 762 | – | – | – | 1236.2 | 1190.3 | 1145.3
[1], x1 = 0.4007 | 783 | 774 | 764 | – | – | – | 1228.8 | 1183.5 | 1139.2
[1], x1 = 0.5023 | 786 | 776 | 767 | – | – | – | 1222 | 1178 | 1134.6
[1], x1 = 0.6028 | 788 | 779 | 770 | – | – | – | 1217.4 | 1174.2 | 1131.6
[1], x1 = 0.7038 | 791 | 782 | 773 | – | – | – | 1214.2 | 1171.8 | 1129.9
[1], x1 = 0.8062 | 794 | 785 | 776 | – | – | – | 1212.1 | 1170.4 | 1129.2
[1], x1 = 0.9004 | 797 | 788 | 779 | – | – | – | 1211.3 | 1170.2 | 1129.6
[1], x1 = 1 | 801 | 792 | 782 | – | – | – | 1212.3 | 1171.4 | 1131.4
[2], x1 = 0.0978 | – | – | – | 1.421 | 1.416 | 1.411 | – | – | –
[2], x1 = 0.1984 | – | – | – | 1.417 | 1.412 | 1.406 | – | – | –
[2], x1 = 0.3014 | – | – | – | 1.413 | 1.408 | 1.403 | – | – | –
[2], x1 = 0.4007 | – | – | – | 1.41 | 1.405 | 1.4 | – | – | –
[2], x1 = 0.5023 | – | – | – | 1.407 | 1.402 | 1.397 | – | – | –
[2], x1 = 0.6028 | – | – | – | 1.404 | 1.399 | 1.394 | – | – | –
[2], x1 = 0.7038 | – | – | – | 1.402 | 1.397 | 1.392 | – | – | –
[2], x1 = 0.8062 | – | – | – | 1.399 | 1.395 | 1.39 | – | – | –
[2], x1 = 0.9004 | – | – | – | 1.398 | 1.393 | 1.388 | – | – | –
[2], x1 = 1 | – | – | – | 1.396 | 1.391 | 1.387 | – | – | –

CC(=O)CC(C)C [4-methylpentan-2-one] + CC#N
Settings | mass density, 293.15 K [kg/m3] | mass density, 303.15 K [kg/m3] | mass density, 313.15 K [kg/m3] | refractive index, 293.15 K | refractive index, 303.15 K | refractive index, 313.15 K | speed of sound, 293.15 K [m/s] | speed of sound, 303.15 K [m/s] | speed of sound, 313.15 K [m/s]
[1], x1 = 0.102 | 786 | 776 | 765 | – | – | – | 1280.4 | 1239.9 | 1199.1
[1], x1 = 0.1961 | 790 | 779 | 769 | – | – | – | 1267.6 | 1226.3 | 1185.4
[1], x1 = 0.3082 | 792 | 782 | 772 | – | – | – | 1255.2 | 1213.5 | 1172.5
[1], x1 = 0.4019 | 794 | 784 | 774 | – | – | – | 1245.9 | 1204.6 | 1163.8
[1], x1 = 0.5188 | 796 | 787 | 777 | – | – | – | 1237.4 | 1195.8 | 1155
[1], x1 = 0.6001 | 797 | 788 | 778 | – | – | – | 1231.4 | 1190.3 | 1149.7
[1], x1 = 0.7014 | 798 | 789 | 779 | – | – | – | 1225.4 | 1184.5 | 1144
[1], x1 = 0.8008 | 799 | 790 | 780 | – | – | – | 1220.8 | 1179.6 | 1139.3
[1], x1 = 0.8801 | 800 | 791 | 781 | – | – | – | 1216.6 | 1175.9 | 1135.7
[1], x1 = 1 | 801 | 792 | 782 | – | – | – | 1212.3 | 1171.4 | 1131.4
[2], x1 = 0.102 | – | – | – | 1.355 | 1.35 | 1.345 | – | – | –
[2], x1 = 0.1961 | – | – | – | 1.363 | 1.358 | 1.353 | – | – | –
[2], x1 = 0.3082 | – | – | – | 1.371 | 1.366 | 1.361 | – | – | –
[2], x1 = 0.4019 | – | – | – | 1.376 | 1.371 | 1.367 | – | – | –
[2], x1 = 0.5188 | – | – | – | 1.381 | 1.377 | 1.372 | – | – | –
[2], x1 = 0.6001 | – | – | – | 1.385 | 1.38 | 1.375 | – | – | –
[2], x1 = 0.7014 | – | – | – | 1.388 | 1.384 | 1.379 | – | – | –
[2], x1 = 0.8008 | – | – | – | 1.391 | 1.387 | 1.382 | – | – | –
[2], x1 = 0.8801 | – | – | – | 1.393 | 1.389 | 1.384 | – | – | –
[2], x1 = 1 | – | – | – | 1.396 | 1.391 | 1.387 | – | – | –
